Data: ChEMBL document CHEMBL1649270, “ST-246 inhibits in vivo poxvirus dissemination, virus shedding, and systemic disease manifestation” (2009)
The source made the active and inactive calls. The rule behind the calls is not given here.

How the values were obtained:
[1] = tested on: Vaccinia virus WR; assay: Antiviral activity against Vaccinia virus WR ATCC VR-1354 infected through intraperitoneal route in BALB/c mouse assessed as reduction of viral load in blood at 100 mg/kg, po qd measured after 5 days postinfection by RT-PCR analysis relative to control; assay type: functional, organism-based; design: dose 100 mg/kg
[2] = tested on: Vaccinia virus WR; assay: Antiviral activity against Vaccinia virus WR ATCC VR-1354 infected through percutaneous route in BALB/c mouse assessed as inhibition of virus dissemination in spleen at 100 mg/kg, po qd for 3 days by RT-PCR analysis relative to control; assay type: functional
[3] = tested on: Vaccinia virus WR; assay: Antiviral activity against Vaccinia virus WR ATCC VR-1354 infected through dermal scarification route in BALB/c mouse assessed as reduction of viral load in liver at 100 mg/kg, po qd measured after 14 days postinfection by RT-PCR analysis relative to control; assay type: functional, organism-based; design: dose 100 mg/kg
[4] = tested on: Vaccinia virus WR; assay: Antiviral activity against Vaccinia virus WR ATCC VR-1354 infected through percutaneous route in BALB/c mouse assessed as inhibition of virus dissemination in blood at 100 mg/kg, po qd for 1 day by RT-PCR analysis; assay type: functional, organism-based; design: dose 100 mg/kg
[5] = tested on: Vaccinia virus WR; assay: Antiviral activity against Vaccinia virus WR ATCC VR-1354 infected through intravenous route in BALB/c mouse assessed as reduction of viral load in lung at 100 mg/kg, po qd measured after 14 days postinfection by RT-PCR analysis relative to control; assay type: functional, organism-based; design: dose 100 mg/kg
[6] = tested on: Vaccinia virus WR; assay: Antiviral activity against Vaccinia virus WR ATCC VR-1354 infected through dermal scarification route in BALB/c mouse assessed as protection against virus-induced satellite lesion formation on tails at 100 mg/kg, po qd measured after 6 days postinfection; assay type: functional, organism-based; design: dose 100 mg/kg
[7] = tested on: Vaccinia virus WR; assay: Antiviral activity against Vaccinia virus WR ATCC VR-1354 infected through intraperitoneal route in BALB/c mouse assessed as reduction of viral load in blood at 100 mg/kg, po qd measured after 3 days postinfection by RT-PCR analysis relative to control; assay type: functional, organism-based; design: dose 100 mg/kg
[8] = tested on: Vaccinia virus WR; assay: Antiviral activity against Vaccinia virus WR ATCC VR-1354 infected through percutaneous route in BALB/c mouse assessed as reduction of viral load in brain at 100 mg/kg, po qd measured after 13 days postinfection by RT-PCR analysis relative to control; assay type: functional, organism-based; design: dose 100 mg/kg
[9] = tested on: Vaccinia virus WR; assay: Antiviral activity against Vaccinia virus WR ATCC VR-1354 infected through percutaneous route in BALB/c mouse assessed as protection against hypothermia at 100 mg/kg, po qd for 5 to 14 days; assay type: functional, organism-based; design: dose 100 mg/kg
[10] = tested on: Vaccinia virus WR; assay: Antiviral activity against Vaccinia virus WR ATCC VR-1354 infected through percutaneous route in BALB/c mouse assessed as protection against virus-induced death at 100 mg/kg, po qd administered 3 days after postinfection measured on day 6; assay type: functional
[11] = tested on: Vaccinia virus WR; assay: Antiviral activity against Vaccinia virus WR ATCC VR-1354 infected through subcutaneous route in BALB/c mouse assessed as protection against virus-induced satellite lesion formation on tails at 100 mg/kg, po qd measured after 6 days postinfection; assay type: functional, organism-based; design: dose 100 mg/kg
[12] = tested on: Vaccinia virus WR; assay: Antiviral activity against Vaccinia virus WR ATCC VR-1354 infected through percutaneous route in BALB/c mouse assessed as reduction of viral load in blood at 100 mg/kg, po qd measured after 13 days postinfection by RT-PCR analysis relative to control; assay type: functional, organism-based; design: dose 100 mg/kg
[13] = tested on: Vaccinia virus WR; assay: Antiviral activity against Vaccinia virus WR ATCC VR-1354 infected through percutaneous route in BALB/c mouse assessed as protection against virus-induced death at 100 mg/kg, po qd for 5 to 14 days; assay type: functional, organism-based; design: dose 100 mg/kg
[14] = tested on: Vaccinia virus WR; assay: Antiviral activity against Vaccinia virus WR ATCC VR-1354 infected through percutaneous route in BALB/c mouse assessed as protection against virus-induced satellite lesion formation on tails at 100 mg/kg, po qd measured after 6 days postinfection; assay type: functional, organism-based; design: dose 100 mg/kg
[15] = tested on: Vaccinia virus WR; assay: Antiviral activity against Vaccinia virus WR ATCC VR-1354 infected through percutaneous route in BALB/c mouse assessed as reduction of viral load in liver at 100 mg/kg, po qd measured after 7 days postinfection by RT-PCR analysis relative to control; assay type: functional, organism-based; design: dose 100 mg/kg
[16] = tested on: Vaccinia virus WR; assay: Antiviral activity against Vaccinia virus WR ATCC VR-1354 infected through percutaneous route in BALB/c mouse assessed as reduction of viral load in blood at 100 mg/kg, po qd measured after 7 days postinfection by RT-PCR analysis relative to control; assay type: functional, organism-based; design: dose 100 mg/kg
[17] = tested on: Vaccinia virus WR; assay: Antiviral activity against Vaccinia virus WR ATCC VR-1354 infected through intraperitoneal route in BALB/c mouse assessed as reduction of viral load in spleen at 100 mg/kg, po qd measured after 3 days postinfection by RT-PCR analysis relative to control; assay type: functional, organism-based; design: dose 100 mg/kg
[18] = tested on: Vaccinia virus WR; assay: Antiviral activity against Vaccinia virus WR ATCC VR-1354 infected through percutaneous route in BALB/c mouse assessed as inhibition of virus dissemination in liver at 100 mg/kg, po qd for 3 to 14 days by RT-PCR analysis; assay type: functional, organism-based; design: dose 100 mg/kg
[19] = tested on: Vaccinia virus WR; assay: Antiviral activity against Vaccinia virus WR ATCC VR-1354 infected through intraperitoneal route in BALB/c mouse assessed as protection against virus-induced satellite lesion formation on tails at 100 mg/kg, po qd measured after 6 days postinfection; assay type: functional, organism-based; design: dose 100 mg/kg
[20] = tested on: Vaccinia virus WR; assay: Antiviral activity against Vaccinia virus WR ATCC VR-1354 infected through intravenous route in BALB/c mouse assessed as reduction of viral load in blood at 100 mg/kg, po qd measured after 14 days postinfection by RT-PCR analysis relative to control; assay type: functional, organism-based; design: dose 100 mg/kg
[21] = tested on: Vaccinia virus WR; assay: Antiviral activity against Vaccinia virus WR ATCC VR-1354 infected through percutaneous route in BALB/c mouse assessed as reduction of viral load in spleen at 100 mg/kg, po qd measured after 13 days postinfection by RT-PCR analysis relative to control; assay type: functional, organism-based; design: dose 100 mg/kg
[22] = tested on: Vaccinia virus WR; assay: Antiviral activity against Vaccinia virus WR ATCC VR-1354 infected through dermal scarification route in ACAM2000 vaccinated BALB/c mouse assessed as reduction of swab virus titers at 100 mg/kg, po qd measured after 5 days postinfection by RT-PCR analysis relative to control; assay type: functional
[23] = tested on: Vaccinia virus WR; assay: Antiviral activity against Vaccinia virus WR ATCC VR-1354 infected through dermal scarification route in BALB/c mouse assessed as reduction of viral load in liver at 100 mg/kg, po qd measured after 5 days postinfection by RT-PCR analysis relative to control; assay type: functional
[24] = tested on: Vaccinia virus WR; assay: Antiviral activity against Vaccinia virus WR ATCC VR-1354 infected through dermal scarification route in BALB/c mouse assessed as reduction of viral load in blood at 100 mg/kg, po qd measured after 5 days postinfection by RT-PCR analysis relative to control; assay type: functional
[25] = tested on: Vaccinia virus WR; assay: Antiviral activity against Vaccinia virus WR ATCC VR-1354 infected through dermal scarification route in BALB/c mouse assessed as reduction of viral load in lung at 100 mg/kg, po qd measured after 14 days postinfection by RT-PCR analysis relative to control; assay type: functional, organism-based; design: dose 100 mg/kg
[26] = tested on: Vaccinia virus WR; assay: Antiviral activity against Vaccinia virus WR ATCC VR-1354 infected through dermal scarification route in BALB/c mouse assessed as reduction of viral load in lung at 100 mg/kg, po qd measured after 5 days postinfection by RT-PCR analysis relative to control; assay type: functional

With `O=C(NN1C(=O)[C@@H]2[C@@H]3C=C[C@@H]([C@H]4C[C@@H]34)[C@@H]2C1=O)c1ccc(C(F)(F)F)cc1` [TECOVIRIMAT] the Activity [1] was “Active”, the “fold change (FC)” value [2] was 85 and the Activity [3] was “Active”. For the same compound, the Activity [4] was “inactive”, the Activity [5] was “Active” and the Activity [6] was “Active”. The Activity [7] was “inactive”, the Activity [8] was “Active” and the Activity [9] was “Active”. The Activity [10] was 100%, the Activity [11] was “Active” and the Activity [12] was “Active”. The Activity [13] was “Active”, the Activity [14] was “Active” and the Activity [15] was “Active”. For the same compound, the Activity [16] was “Active”, the Activity [17] was “inactive” and the Activity [18] was “Active”. For the same compound, the Activity [19] was “Active”, the Activity [20] was “Active” and the Activity [21] was “Active”. For the same compound, the “fold change (FC)” value [22] was 71, the “fold change (FC)” value [23] was 8 and the “fold change (FC)” value [24] was 260. For the same compound, the Activity [25] was “Active” and the “fold change (FC)” value [26] was 18.
